14 compounds from US20250059182A1, “SOS1 INHIBITORS” (Mirati Therapeutics, Inc., priority 2021, published 2025) can be followed below.

Counter-ions that a name gives are not always drawn. Like-named read-outs stand apart in the source and are kept apart here.

Assay [1] deals with T1, recombinant human SOS1 polypeptide (amino acids 560-1049) (Homo sapiens, UniProt Q07889).
T1 construct: corresponding to amino acids 560-1049, expressed in E. Coli; made in house; host or cells: E. coli
T1 sequence (Q07889 560-1049): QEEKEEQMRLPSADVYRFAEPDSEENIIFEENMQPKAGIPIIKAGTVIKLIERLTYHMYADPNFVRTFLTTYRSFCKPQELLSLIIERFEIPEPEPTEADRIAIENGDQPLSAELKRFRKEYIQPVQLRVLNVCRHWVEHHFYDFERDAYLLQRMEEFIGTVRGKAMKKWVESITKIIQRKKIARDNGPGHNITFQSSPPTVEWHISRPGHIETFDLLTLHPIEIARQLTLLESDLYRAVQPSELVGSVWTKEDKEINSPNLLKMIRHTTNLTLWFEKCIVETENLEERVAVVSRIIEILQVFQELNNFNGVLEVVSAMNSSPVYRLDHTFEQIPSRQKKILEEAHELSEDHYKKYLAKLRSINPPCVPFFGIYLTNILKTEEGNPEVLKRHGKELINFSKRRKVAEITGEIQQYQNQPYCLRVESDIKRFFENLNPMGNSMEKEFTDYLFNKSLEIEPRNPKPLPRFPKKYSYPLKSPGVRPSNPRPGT
The assay can be described thus: HTRF displacement assay: inhibition of labeled tracer binding to SOS1. As to conditions: Table A1, Morrison equation for competitive binding.

In another assay the test system is pERK in MKN1 cells. Put plainly: pERK inhibition, In-Cell Western (LI-COR Odyssey), MKN1 cells. In kind it is cell-based. Conditions: Homo sapiens. A digest of the protocol:
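IC50 was fitted from % pERK inhibition, calculated as the GAPDH-normalised pERK signal of each well divided by the vehicle mean. Signal was imaged at 700 and 800 nm after fixation, methanol permeabilisation and dual antibody staining. Before fixation, MKN1 cells had received compound for about 0.5–1 h at 37 °C, top concentration 10 µM, nine 3-fold dilutions.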

Where [2] appears, read: MKN-1, Table B1, MKN1 or H358 cells (table does not say which), 0.5-1 hour incubation, read-out: IC50 (nM), pERK inhibition.
Setting [3] is: MKN-1, read-out: IC50 (nM), pERK inhibition.

As for `Cc1c(C#N)cccc1[C@@H](C)Nc1nnc(C)c2cnc(N3CCC3)cc12` [Example P-224, (R)-3-(1-((7-(azetidin-1-yl)-4-methylpyrido[3,4-d]pyridazin-1-yl)amino)ethyl)-2-methylbenzonitrile], the Ki in assay [1] was found to be 3.62 nM. Moreover, the IC50 in the assay with pERK in MKN1 cells (setting [2]) came to 41.4 nM.
For the compound `Cc1nnc(N[C@H](C)c2cccc(C(F)F)c2F)c2cc(N3CCC34CN(CCCF)C4)ncc12` [Example P-226, (R)-N-(1-(3-(difluoromethyl)-2-fluorophenyl)ethyl)-7-(6-(3-fluoropropyl)-1,6-diazaspiro[3.3]heptan-1-yl)-4-methylpyrido[3,4-d]pyridazin-1-amine formic acid salt], the Ki in assay [1] is 0.288 nM. The IC50 in the assay on pERK in MKN1 cells (setting [3]) is 62.3 nM.
Regarding `Cc1nnc(N[C@H](C)c2cccc(C(F)F)c2F)c2cc(N3CCN(CCCF)CC3)ncc12` [Example P-227, (R)-N-(1-(3-(difluoromethyl)-2-fluorophenyl)ethyl)-7-(4-(3-fluoropropyl)piperazin-1-yl)-4-methylpyrido[3,4-d]pyridazin-1-amine], in assay [1], the Ki was 0.396 nM. In addition, in the assay with pERK in MKN1 cells (setting [2]), the IC50 is 223 nM.
For `Cc1c(C#N)cccc1[C@@H](C)Nc1nnc(C)c2cnc(N3CCN(CCCF)CC3)cc12` [Example P-229, (R)-3-(1-((7-(4-(3-fluoropropyl)piperazin-1-yl)-4-methylpyrido[3,4-d]pyridazin-1-yl)amino)ethyl)-2-methylbenzonitrile] the same measures were 0.671 nM and 59.3 nM.
For `Cc1c(C#N)cccc1[C@@H](C)Nc1nnc(C)c2cc(F)c(N3CCC34COC4)cc12` [Example P-230, (R)-3-(1-((6-fluoro-4-methyl-7-(6-oxa-1-azaspiro[3.3]heptan-1-yl)phthalazin-1-yl)amino)ethyl)-2-methylbenzonitrile] the same measures were 2.51 nM and 26 nM.
As for `Cc1c(C#N)cccc1[C@@H](C)Nc1nnc(C)c2cnc(N3CCC34COC4)cc12` [Example P-231, (R)-2-methyl-3-(1-((4-methyl-7-(6-oxa-1-azaspiro[3.3]heptan-1-yl)pyrido[3,4-d]pyridazin-1-yl)amino)ethyl)benzonitrile formic acid salt], the Ki in assay [1] was found to be 3.34 nM. In addition, the half-maximal inhibitory concentration (IC50) in the assay with pERK in MKN1 cells (setting [3]) is 4290 nM.
Consider `Cc1nnc(N[C@H](C)c2cccc(C(F)F)c2F)c2cc(N3CCC34COC4)c(F)cc12` [Example P-232, (R)-N-(1-(3-(difluoromethyl)-2-fluorophenyl)ethyl)-6-fluoro-4-methyl-7-(6-oxa-1-azaspiro[3.3]heptan-1-yl)phthalazin-1-amine], for which, in assay [1], the Ki stood at 1.18 nM. Further, the IC50 in the assay on pERK in MKN1 cells (setting [2]) came to 7130 nM.
With `Cc1nnc(N[C@H](C)c2cccc(C(F)F)c2F)c2cc(N3CCC34COC4)ncc12` [Example P-233, (R)-N-(1-(3-(difluoromethyl)-2-fluorophenyl)ethyl)-4-methyl-7-(6-oxa-1-azaspiro[3.3]heptan-1-yl)pyrido[3,4-d]pyridazin-1-amine], in assay [1], the Ki worked out at 2.75 nM. The IC50 in the assay with pERK in MKN1 cells (setting [2]) came to 18.8 nM.
For `Cc1nnc(N[C@H](C)c2cccc(C(F)F)c2F)c2cc(N3CCC34CN(C)C4)c(F)cc12` [Example P-234, (R)-N-(1-(3-(difluoromethyl)-2-fluorophenyl)ethyl)-6-fluoro-4-methyl-7-(6-methyl-1,6-diazaspiro[3.3]heptan-1-yl)phthalazin-1-amine] the same measures were 0.416 nM and 50.2 nM.
For the compound `Cc1c(C#N)cccc1[C@@H](C)Nc1nnc(C)c2ccc(N3CCC34CN(C)C4)cc12` [Example P-235, (R)-2-methyl-3-(1-((4-methyl-7-(6-methyl-1,6-diazaspiro[3.3]heptan-1-yl)phthalazin-1-yl)amino)ethyl)benzonitrile formic acid salt], the Ki in assay [1] was 0.618 nM. In addition, the IC50 in the assay with pERK in MKN1 cells (setting [3]) turned out to be 95.8 nM.
For the compound `Cc1nnc(N[C@H](C)c2cccc(C(F)F)c2F)c2cc(N3CCC34CN(C)C4)ccc12` [Example P-236, (R)-N-(1-(3-(difluoromethyl)-2-fluorophenyl)ethyl)-4-methyl-7-(6-methyl-1,6-diazaspiro[3.3]heptan-1-yl)phthalazin-1-amine], in assay [1], the Ki was 0.596 nM. Besides, the IC50 in the assay on pERK in MKN1 cells (setting [2]) worked out at 42.1 nM.
The matching figures for `Cc1nnc(N[C@H](C)c2cccc(C(F)F)c2F)c2cc(N3CCC34CNC4)ncc12` [Example P-237, (R)-N-(1-(3-(difluoromethyl)-2-fluorophenyl)ethyl)-4-methyl-7-(1,6-diazaspiro[3.3]heptan-1-yl)pyrido[3,4-d]pyridazin-1-amine]: 0.515 nM and 182 nM.
For the compound `Cc1nnc(N[C@H](C)c2cccc(C(F)F)c2F)c2cc(N3CCC34CN(C)C4)ncc12` [Example P-238, (R)-N-(1-(3-(difluoromethyl)-2-fluorophenyl)ethyl)-4-methyl-7-(6-methyl-1,6-diazaspiro[3.3]heptan-1-yl)pyrido[3,4-d]pyridazin-1-amine], the Ki in assay [1] is 0.4 nM. In addition, in the assay with pERK in MKN1 cells (setting [2]), the half-inhibitory concentration (IC50) turned out to be 17.7 nM.
Regarding `Cc1nnc(N[C@H](C)c2cccc(C(F)F)c2F)c2cc(-c3ccc(=O)n(C)c3)ncc12` [Example P-239, (R)-5-(1-((1-(3-(difluoromethyl)-2-fluorophenyl)ethyl)amino)-4-methylpyrido[3,4-d]pyridazin-7-yl)-1-methylpyridin-2(1H)-one], the Ki in assay [1] was 15.1 nM. Besides, in the assay on pERK in MKN1 cells (setting [2]), the half-maximal inhibitory concentration (IC50) is 606 nM.
